Source: US20240254118A1, “PRMT5 INHIBITORS AND USES THEREOF” (Gilead Sciences, Inc., priority 2022, published 2024)

Experiments:
[1] = test system: HCT116 MTAP-deleted cells; test: Cell viability assay (CellTiter-Glo, 7 days), HCT116 MTAP-deleted; settings: Homo sapiens, HCT-116, 168 h
[2] = test system: SDMA signal (PRMT5 inhibition) in HCT116 MTAP-deleted cells; test: Symmetric di-methyl arginine image-based high content screen assay (SDMA assay), HCT116 MTAP-deleted; format: cell-based; settings: SDMA assay; for EC50: Homo sapiens, HCT-116, 72 h, 3 days of treatment, cell line not given, taken as HCT116 MTAP-deleted, read-out: EC50 (SDMA assay); for EC50 selectivity (SDMA assay): taken as HCT116 WT versus MTAP-deleted
Outline: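 Read-out: per-cell mean SDMA immunofluorescence (Alexa Fluor 488 secondary), cells segmented by DAPI on a high-content imager. Compound exposure in HCT116 MTAP-deleted cells lasted until fixation on Day 3; overnight 4° C primary anti-SDMA antibody staining.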

Row | EC50 [2] [nM] | EC50 selectivity (SDMA assay) [2] | SMILES | CC50 [1] [nM]
1 | 1 to 5 | 221 | CN(C(=O)[C@H]1C[C@H]1F)N(Cc1ccc(C(F)(F)F)cn1)C(=O)c1ccc2nc(N)c3cnn(C)c3c2c1 [Example 258, 4-amino-N′-((1R,2R)-2-fluorocyclopropane-1-carbonyl)-N′,1-dimethyl-N-((5-(trifluoromethyl)pyridin-2-yl)methyl)-1H-pyrazolo[4,3-c]quinoline-8-carbohydrazide] | < 100
2 | 1 to 5 | 182 | CN(C(=O)C1CC1)N(Cc1nc2cc(Cl)ccc2o1)C(=O)c1ccc2nc(N)c3cnn(C)c3c2c1 [Example 259, 4-amino-N-((5-chlorobenzo[d]oxazol-2-yl)methyl)-N′-(cyclopropanecarbonyl)-N′,1-dimethyl-1H-pyrazolo[4,3-c]quinoline-8-carbohydrazide] | < 100
3 | 1 to 5 | 211 | Cn1ncc2c(N)nc3ccc(C(=O)N(Cc4ccc(C(F)(F)F)cn4)N4C(=O)O[C@@H]5CC[C@@H]54)cc3c21 [Example 260, 4-amino-1-methyl-N-((1R,5S)-3-oxo-2-oxa-4-azabicyclo[3.2.0]heptan-4-yl)-N-((5-(trifluoromethyl)pyridin-2-yl)methyl)-1H-pyrazolo[4,3-c]quinoline-8-carboxamide] | < 100
4 | 1 to 5 | 257 | CC(=O)N(C)N(Cc1ncc(C(F)(F)F)cc1Cl)C(=O)c1ccc2nc(N)c3cnn(C)c3c2c1 [Example 261, N′-acetyl-4-amino-N-((3-chloro-5-(trifluoromethyl)pyridin-2-yl)methyl)-N′,1-dimethyl-1H-pyrazolo[4,3-c]quinoline-8-carbohydrazide] | < 100
5 | 1 to 5 | 169 | CN(C(=O)[C@H]1C[C@H]1F)N(Cc1ncc(C(F)(F)F)cc1F)C(=O)c1ccc2nc(N)c3cnn(C)c3c2c1 [Example 262, 4-amino-N-((3-fluoro-5-(trifluoromethyl)pyridin-2-yl)methyl)-N′-((1R,2R)-2-fluorocyclopropane-1-carbonyl)-N′,1-dimethyl-1H-pyrazolo[4,3-c]quinoline-8-carbohydrazide] | < 100
6 | < 1 | 46 | [2H]C([2H])(c1ccc(C(F)(F)F)cc1F)N(C(=O)c1ccc2nc(N)c3cnn(C)c3c2c1)N(C)C(=O)C1CC1 [Example 263, 4-amino-N′-(cyclopropanecarbonyl)-N-((2-fluoro-4-(trifluoromethyl)phenyl)methyl-d2)-N′,1-dimethyl-1H-pyrazolo[4,3-c]quinoline-8-carbohydrazide] | < 100
7 | < 1 | 281 | [2H]C([2H])(c1ccc(C(F)(F)F)cc1F)N(C(=O)c1ccc2nc(N)c3cnn(C)c3c2c1)N(C)C(C)=O [Example 264, N′-acetyl-4-amino-N-((2-fluoro-4-(trifluoromethyl)phenyl)methyl-d2)-N′,1-dimethyl-1H-pyrazolo[4,3-c]quinoline-8-carbohydrazide] | < 100
8 | < 1 | 209 | CCC(=O)N(C)N(Cc1ncc(C(F)(F)F)cc1F)C(=O)c1ccc2nc(N)c3cnn(C)c3c2c1 [Example 265, 4-amino-N-((3-fluoro-5-(trifluoromethyl)pyridin-2-yl)methyl)-N′,1-dimethyl-N′-propionyl-1H-pyrazolo[4,3-c]quinoline-8-carbohydrazide] | < 100
9 | < 1 | 63 | [2H]C([2H])([2H])N(C(C)=O)N(Cc1ccc(C(F)(F)F)cc1F)C(=O)c1ccc2nc(N)c3cnn(C([2H])([2H])[2H])c3c2c1 [Example 266, N′-acetyl-4-amino-N-(2-fluoro-4-(trifluoromethyl)benzyl)-N′,1-bis(methyl-d3)-1H-pyrazolo[4,3-c]quinoline-8-carbohydrazide] | < 100
10 | 1 to 5 | 223 | Cc1cc(CN(C(=O)c2ccc3nc(N)c4cnn(C)c4c3c2)N(C)C(=O)C2CC2)ncc1Cl [Example 267, 4-amino-N-((5-chloro-4-methylpyridin-2-yl)methyl)-N′-(cyclopropanecarbonyl)-N′,1-dimethyl-1H-pyrazolo[4,3-c]quinoline-8-carbohydrazide] | < 100
11 | < 1 | 129 | [2H]C([2H])([2H])n1ncc2c(N)nc3ccc(C(=O)N(Cc4ccc(C(F)(F)F)cc4F)N(C)C(C)=O)cc3c21 [Example 270, N′-acetyl-4-amino-N-(2-fluoro-4-(trifluoromethyl)benzyl)-N′-methyl-1-(methyl-d3)-1H-pyrazolo[4,3-c]quinoline-8-carbohydrazide] | < 100
12 | < 1 | 86 | CC(=O)N(C)N(Cc1ncc(C(F)(F)F)cc1F)C(=O)c1ccc2nc(N)c3cnn(C)c3c2c1 [Example 271, N′-acetyl-4-amino-N-((3-fluoro-5-(trifluoromethyl)pyridin-2-yl)methyl)-N′,1-dimethyl-1H-pyrazolo[4,3-c]quinoline-8-carbohydrazide] | < 100
13 | < 1 | 466 | CN(C(=O)C1CC1)N(Cc1cc(F)c(F)cc1F)C(=O)c1ccc2nc(N)c3cnn(C)c3c2c1 [Example 272, 4-amino-N′-(cyclopropanecarbonyl)-N′,1-dimethyl-N-(2,4,5-trifluorobenzyl)-1H-pyrazolo[4,3-c]quinoline-8-carbohydrazide] | < 100
14 | < 1 | 243 | CN(C(=O)C1CC1)N(Cc1ncc(C(F)(F)F)cc1F)C(=O)c1ccc2nc(N)c3cnn(C)c3c2c1 [Example 274, 4-amino-N′-(cyclopropanecarbonyl)-N-((3-fluoro-5-(trifluoromethyl)pyridin-2-yl)methyl)-N′,1-dimethyl-1H-pyrazolo[4,3-c]quinoline-8-carbohydrazide] | < 100
15 | < 1 | 129 | Cc1nc2ccc(CN(C(=O)c3ccc4nc(N)c5cnn(C)c5c4c3)N(C)C(=O)C3CC3)cc2s1 [Example 275, 4-amino-N′-(cyclopropanecarbonyl)-N′,1-dimethyl-N-((2-methylbenzo[d]thiazol-6-yl)methyl)-1H-pyrazolo[4,3-c]quinoline-8-carbohydrazide] | < 100
16 | 1 to 5 | 166 | CN(C(=O)[C@@H]1C[C@@H]1F)N(Cc1ccc(C(F)(F)F)cn1)C(=O)c1ccc2nc(N)c3cnn(C)c3c2c1 [Example 276, 4-amino-N′-((1S,2S)-2-fluorocyclopropane-1-carbonyl)-N′,1-dimethyl-N-((5-(trifluoromethyl)pyridin-2-yl)methyl)-1H-pyrazolo[4,3-c]quinoline-8-carbohydrazide] | < 100
17 | 1 to 5 | 229 | Cn1ncc2c(N)nc3ccc(C(=O)N(Cc4ccc(C(F)(F)F)cn4)NC(=O)OC(C)(C)C)cc3c21 [Example 277, tert-butyl 2-(4-amino-1-methyl-1H-pyrazolo[4,3-c]quinoline-8-carbonyl)-2-((5-(trifluoromethyl)pyridin-2-yl)methyl)hydrazine-1-carboxylate] | < 100
18 | < 1 | 121 | [2H]C([2H])([2H])N(C(=O)C1CC1)N(Cc1ncc(C(F)(F)F)cc1F)C(=O)c1ccc2nc(N)c3cnn(C([2H])([2H])[2H])c3c2c1 [Example 278, 4-amino-N′-(cyclopropanecarbonyl)-N-((3-fluoro-5-(trifluoromethyl)pyridin-2-yl)methyl)-N′,1-bis(methyl-d3)-1H-pyrazolo[4,3-c]quinoline-8-carbohydrazide] | < 100
19 | 1 to 5 | 494 | CN(C(=O)C1CC1)N(Cc1cnc(C(F)(F)F)c(F)c1)C(=O)c1ccc2nc(N)c3cnn(C)c3c2c1 [Example 279, 4-amino-N′-(cyclopropanecarbonyl)-N-((5-fluoro-6-(trifluoromethyl)pyridin-3-yl)methyl)-N′,1-dimethyl-1H-pyrazolo[4,3-c]quinoline-8-carbohydrazide] | 100 to 1000
20 | 1 to 5 | 31 | CCC(=O)N(CC)N(Cc1ccc(C(F)(F)F)cn1)C(=O)c1cc2c(cc1F)nc(N)c1cnn(C)c12 [Example 280, 4-amino-N′-ethyl-7-fluoro-1-methyl-N′-propionyl-N-((5-(trifluoromethyl)pyridin-2-yl)methyl)-1H-pyrazolo[4,3-c]quinoline-8-carbohydrazide] | < 100
21 | 1 to 5 | 70 | CN(C(=O)C1CC1)N(Cc1ccc(C(F)(F)F)cn1)C(=O)c1ccc2nc(N)c3cn[nH]c3c2c1 [Example 281, 4-amino-N′-(cyclopropanecarbonyl)-N′-methyl-N-((5-(trifluoromethyl)pyridin-2-yl)methyl)-1H-pyrazolo[4,3-c]quinoline-8-carbohydrazide] | < 100
22 | < 1 | 80 | CN(C(=O)C1CC1)N(Cc1ccc2c(c1)OC(F)(F)O2)C(=O)c1ccc2nc(N)c3cnn(C)c3c2c1 [Example 283, 4-amino-N′-(cyclopropanecarbonyl)-N-((2,2-difluorobenzo[d][1,3]dioxol-5-yl)methyl)-N′,1-dimethyl-1H-pyrazolo[4,3-c]quinoline-8-carbohydrazide] | < 100
